Source: patent US11034650B2, “Compounds useful for treating a Mannheimia haemolytica or Histophilus somni infection” (Intervet Inc., priority 2016, dated 2021)
Values after ≈ are worked out from the molar mass of the structure shown.

Assays:
Assay type in all cases: cell-based
[1] = system: Pasteurella multocida PM 10775 (080130003051, BRD field isolate); test: MIC, broth-microdilution (CLSI VET01-A4), strain PM 10775; conditions: Pasteurella multocida strain PM 10775, broth-microdilution; unit assumed
In short: (§1)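 MIC recorded as the lowest drug level giving no growth visible to the naked eye, from two-fold serial dilutions. Interpretation followed VET01-S3.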

[2] = system: Mannheimia haemolytica MH 13065 (XB0446-6003.9, BRD field isolate); test: MIC, broth-microdilution (CLSI VET01-A4), strain MH 13065; conditions: Mannheimia haemolytica strain MH 13065, broth-microdilution; unit assumed
In short: as §1

[3] = system: Mannheimia haemolytica MH 12587 (1071, BRD field isolate, macrolide-resistance: erm+, E+); test: MIC, broth-microdilution (CLSI VET01-A4), strain MH 12587; conditions: Mannheimia haemolytica strain MH 12587, broth-microdilution; unit assumed
In short: as §1

[4] = system: Mannheimia haemolytica MH 13093 (XB0472-6014.1, BRD field isolate); test: MIC, broth-microdilution (CLSI VET01-A4), strain MH 13093; conditions: Mannheimia haemolytica strain MH 13093, broth-microdilution; unit assumed
In short: as §1

[5] = system: Pasteurella multocida PM 6391 (ATCC 43137, reference strain); test: MIC, broth-microdilution (CLSI VET01-A4), strain PM 6391; conditions: Pasteurella multocida strain PM 6391, broth-microdilution; unit assumed
In short: as §1

[6] = system: Mannheimia haemolytica MH 6357 (M7/2, reference strain, cattle infection strain); test: MIC, broth-microdilution (CLSI VET01-A4), strain MH 6357; conditions: Mannheimia haemolytica strain MH 6357, broth-microdilution; unit assumed
In short: as §1

[7] = system: Pasteurella multocida PM 6267 (P 2225 (L386), reference strain, mouse infection strain); test: MIC, broth-microdilution (CLSI VET01-A4), strain PM 6267; conditions: Pasteurella multocida strain PM 6267, broth-microdilution; unit assumed
In short: as §1

[8] = system: Mannheimia haemolytica MH 10720 (154, BRD field isolate); test: MIC, broth-microdilution (CLSI VET01-A4), strain MH 10720; conditions: Mannheimia haemolytica strain MH 10720, broth-microdilution; unit assumed
In short: as §1

[9] = system: Pasteurella multocida PM 12080 (IV102277-0093, BRD field isolate); test: MIC, broth-microdilution (CLSI VET01-A4), strain PM 12080; conditions: Pasteurella multocida strain PM 12080, broth-microdilution; unit assumed
In short: as §1

[10] = system: Mannheimia haemolytica MH 6374 (ATCC 33396, reference strain); test: MIC, broth-microdilution (CLSI VET01-A4), strain MH 6374; conditions: Mannheimia haemolytica strain MH 6374, broth-microdilution; unit assumed
In short: as §1

Which results are given for `C=CCNCc1ccc(C#Cc2ccc(C(=O)N[C@H](C(=O)NO)C(C)(C)S(C)(=O)=O)cc2)s1` [Compound 312]?
MIC PM 10775 [1]: ≤ 0.1 µg/mL; MIC MH 13065 [2]: 0.4 µg/mL (≈ 0.817 µM); MIC MH 12587 [3]: 0.8 µg/mL (≈ 1.63 µM); MIC MH 13093 [4]: 0.8 µg/mL (≈ 1.63 µM); MIC PM 6391 [5]: ≤ 0.1 µg/mL; MIC MH 6357 [6]: 0.4 µg/mL (≈ 0.817 µM); MIC PM 6267 [7]: 0.4 µg/mL (≈ 0.817 µM); MIC MH 10720 [8]: ≤ 0.1 µg/mL; MIC PM 12080 [9]: ≤ 0.1 µg/mL; MIC MH 6374 [10]: 0.4 µg/mL (≈ 0.817 µM)

What does the source list for `CC(C)([C@H](NC(=O)c1ccc(C#Cc2ccc(CN3CCOCC3)s2)cc1)C(=O)NO)S(C)(=O)=O` [Compound 314]?
MIC PM 10775 [1]: ≤ 0.1 µg/mL; MIC MH 13065 [2]: 0.4 µg/mL (≈ 0.77 µM); MIC MH 12587 [3]: 0.8 µg/mL (≈ 1.54 µM); MIC MH 13093 [4]: 0.8 µg/mL (≈ 1.54 µM); MIC PM 6391 [5]: ≤ 0.1 µg/mL; MIC MH 6357 [6]: 0.4 µg/mL (≈ 0.77 µM); MIC PM 6267 [7]: 0.4 µg/mL (≈ 0.77 µM); MIC MH 10720 [8]: ≤ 0.1 µg/mL; MIC PM 12080 [9]: ≤ 0.1 µg/mL; MIC MH 6374 [10]: 1.6 µg/mL (≈ 3.08 µM)

Which results are given for `CC(C)([C@H](NC(=O)c1ccc(C#Cc2ccc(CNCc3ccccc3)s2)cc1)C(=O)NO)S(C)(=O)=O` [Compound 315]?
MIC PM 10775 [1]: ≤ 0.1 µg/mL; MIC MH 13065 [2]: ≤ 0.1 µg/mL; MIC MH 12587 [3]: 0.4 µg/mL (≈ 0.741 µM); MIC MH 13093 [4]: 0.4 µg/mL (≈ 0.741 µM); MIC PM 6391 [5]: ≤ 0.1 µg/mL; MIC MH 6357 [6]: ≤ 0.1 µg/mL; MIC PM 6267 [7]: 0.2 µg/mL (≈ 0.371 µM); MIC MH 10720 [8]: ≤ 0.1 µg/mL; MIC PM 12080 [9]: ≤ 0.1 µg/mL; MIC MH 6374 [10]: ≤ 0.1 µg/mL

For `COc1ccc(CNCc2ccc(C#Cc3ccc(C(=O)N[C@H](C(=O)NO)C(C)(C)S(C)(=O)=O)cc3)s2)cc1` [Compound 316], which MIC PM 10775 [1] is on record?
The MIC PM 10775 was ≤ 0.1 µg/mL.

What about the MIC MH 13065 [2] of the same compound?
Its MIC MH 13065 is 0.2 µg/mL (≈ 0.351 µM).

And the MIC MH 12587 [3]?
Its MIC MH 12587 is 0.8 µg/mL (≈ 1.4 µM).

What about the MIC MH 13093 [4] of the same compound?
The MIC MH 13093 was 0.4 µg/mL (≈ 0.702 µM).

What about the MIC PM 6391 [5] of the same compound?
Its MIC PM 6391 is ≤ 0.1 µg/mL.

And the MIC MH 6357 [6]?
Its MIC MH 6357 is ≤ 0.1 µg/mL.

And the MIC PM 6267 [7]?
The MIC PM 6267 was 0.2 µg/mL (≈ 0.351 µM).

What about the MIC MH 10720 [8] of the same compound?
The MIC MH 10720 was ≤ 0.1 µg/mL.

And the MIC PM 12080 [9]?
The MIC PM 12080 was ≤ 0.1 µg/mL.

And the MIC MH 6374 [10]?
The MIC MH 6374 was 0.2 µg/mL (≈ 0.351 µM).

How did the MIC PM 10775 [1] turn out when `CC(C)([C@H](NC(=O)c1ccc(C#Cc2ccc(CNCc3ccncc3)s2)cc1)C(=O)NO)S(C)(=O)=O` [Compound 317] was run?
The MIC PM 10775 was ≤ 0.1 µg/mL.

What about the MIC MH 13065 [2] of the same compound?
The MIC MH 13065 was 0.4 µg/mL (≈ 0.74 µM).

And the MIC MH 12587 [3]?
Its MIC MH 12587 is 0.8 µg/mL (≈ 1.48 µM).

And the MIC MH 13093 [4]?
The MIC MH 13093 was 0.4 µg/mL (≈ 0.74 µM).

And the MIC PM 6391 [5]?
Its MIC PM 6391 is ≤ 0.1 µg/mL.

And the MIC MH 6357 [6]?
The MIC MH 6357 was 0.2 µg/mL (≈ 0.37 µM).

And the MIC PM 6267 [7]?
Its MIC PM 6267 is 0.2 µg/mL (≈ 0.37 µM).

What about the MIC MH 10720 [8] of the same compound?
The MIC MH 10720 was ≤ 0.1 µg/mL.

And the MIC PM 12080 [9]?
The MIC PM 12080 was ≤ 0.1 µg/mL.

What about the MIC MH 6374 [10] of the same compound?
The MIC MH 6374 was 0.4 µg/mL (≈ 0.74 µM).

With `CC(C)([C@H](NC(=O)c1ccc(C#Cc2ccc(CNCC#N)s2)cc1)C(=O)NO)S(C)(=O)=O` [Compound 318] as the compound, how does the MIC PM 10775 [1] read?
Its MIC PM 10775 is ≤ 0.1 µg/mL.

And the MIC MH 13065 [2]?
The MIC MH 13065 was 0.8 µg/mL (≈ 1.64 µM).

What about the MIC MH 12587 [3] of the same compound?
The MIC MH 12587 was 1.6 µg/mL (≈ 3.27 µM).

What about the MIC MH 13093 [4] of the same compound?
Its MIC MH 13093 is 1.6 µg/mL (≈ 3.27 µM).

What about the MIC PM 6391 [5] of the same compound?
Its MIC PM 6391 is 0.8 µg/mL (≈ 1.64 µM).

And the MIC MH 6357 [6]?
Its MIC MH 6357 is 0.4 µg/mL (≈ 0.819 µM).

And the MIC PM 6267 [7]?
The MIC PM 6267 was 0.8 µg/mL (≈ 1.64 µM).

And the MIC MH 10720 [8]?
Its MIC MH 10720 is ≤ 0.1 µg/mL.

And the MIC PM 12080 [9]?
The MIC PM 12080 was 0.2 µg/mL (≈ 0.409 µM).

And the MIC MH 6374 [10]?
The MIC MH 6374 was 0.8 µg/mL (≈ 1.64 µM).

What does the source list for `CC(C)([C@H](NC(=O)c1ccc(C#Cc2ccc(CNCc3ccccn3)s2)cc1)C(=O)NO)S(C)(=O)=O` [Compound 320]?
MIC PM 10775 [1]: ≤ 0.1 µg/mL; MIC MH 13065 [2]: 0.2 µg/mL (≈ 0.37 µM); MIC MH 12587 [3]: 0.8 µg/mL (≈ 1.48 µM); MIC MH 13093 [4]: 0.4 µg/mL (≈ 0.74 µM); MIC PM 6391 [5]: ≤ 0.1 µg/mL; MIC MH 6357 [6]: 0.2 µg/mL (≈ 0.37 µM); MIC PM 6267 [7]: 0.2 µg/mL (≈ 0.37 µM); MIC MH 10720 [8]: ≤ 0.1 µg/mL; MIC PM 12080 [9]: ≤ 0.1 µg/mL; MIC MH 6374 [10]: ≤ 0.1 µg/mL

What does the source list for `CC(C)([C@H](NC(=O)c1ccc(C#Cc2ccc(CNCc3ccco3)s2)cc1)C(=O)NO)S(C)(=O)=O` [Compound 321]?
MIC PM 10775 [1]: ≤ 0.1 µg/mL; MIC MH 13065 [2]: 0.2 µg/mL (≈ 0.378 µM); MIC MH 12587 [3]: 0.4 µg/mL (≈ 0.755 µM); MIC MH 13093 [4]: 0.2 µg/mL (≈ 0.378 µM); MIC PM 6391 [5]: ≤ 0.1 µg/mL; MIC MH 6357 [6]: ≤ 0.1 µg/mL; MIC PM 6267 [7]: ≤ 0.1 µg/mL; MIC MH 10720 [8]: ≤ 0.1 µg/mL; MIC PM 12080 [9]: ≤ 0.1 µg/mL; MIC MH 6374 [10]: ≤ 0.1 µg/mL

With `CC(C)([C@H](NC(=O)c1ccc(C#Cc2ccc(CNCc3ncccn3)s2)cc1)C(=O)NO)S(C)(=O)=O` [Compound 322] as the compound, how does the MIC PM 10775 [1] read?
Its MIC PM 10775 is ≤ 0.1 µg/mL.

What about the MIC MH 13065 [2] of the same compound?
Its MIC MH 13065 is 0.8 µg/mL (≈ 1.48 µM).

And the MIC MH 12587 [3]?
Its MIC MH 12587 is 1.6 µg/mL (≈ 2.95 µM).

What about the MIC MH 13093 [4] of the same compound?
The MIC MH 13093 was 0.8 µg/mL (≈ 1.48 µM).

What about the MIC PM 6391 [5] of the same compound?
The MIC PM 6391 was 0.2 µg/mL (≈ 0.369 µM).

What about the MIC MH 6357 [6] of the same compound?
The MIC MH 6357 was 0.4 µg/mL (≈ 0.738 µM).

And the MIC PM 6267 [7]?
The MIC PM 6267 was 0.4 µg/mL (≈ 0.738 µM).

What about the MIC MH 10720 [8] of the same compound?
The MIC MH 10720 was ≤ 0.1 µg/mL.

And the MIC PM 12080 [9]?
Its MIC PM 12080 is ≤ 0.1 µg/mL.

What about the MIC MH 6374 [10] of the same compound?
Its MIC MH 6374 is 1.6 µg/mL (≈ 2.95 µM).

With `Cc1cnc(CNCc2ccc(C#Cc3ccc(C(=O)N[C@H](C(=O)NO)C(C)(C)S(C)(=O)=O)cc3)s2)o1` [Compound 323] as the compound, how does the MIC PM 10775 [1] read?
Its MIC PM 10775 is ≤ 0.1 µg/mL.

What about the MIC MH 13065 [2] of the same compound?
Its MIC MH 13065 is 0.4 µg/mL (≈ 0.734 µM).

And the MIC MH 12587 [3]?
Its MIC MH 12587 is 0.8 µg/mL (≈ 1.47 µM).

What about the MIC MH 13093 [4] of the same compound?
Its MIC MH 13093 is 0.8 µg/mL (≈ 1.47 µM).

And the MIC PM 6391 [5]?
The MIC PM 6391 was ≤ 0.1 µg/mL.

And the MIC MH 6357 [6]?
The MIC MH 6357 was 0.2 µg/mL (≈ 0.367 µM).

What about the MIC PM 6267 [7] of the same compound?
Its MIC PM 6267 is 0.2 µg/mL (≈ 0.367 µM).

What about the MIC MH 10720 [8] of the same compound?
The MIC MH 10720 was ≤ 0.1 µg/mL.

And the MIC PM 12080 [9]?
Its MIC PM 12080 is ≤ 0.1 µg/mL.

And the MIC MH 6374 [10]?
Its MIC MH 6374 is 0.2 µg/mL (≈ 0.367 µM).
